{
  "source": "patent US12729182B2",
  "about": "“Crystalline forms of N,N-dimethyltryptamine and methods of using the same” (priority 2022, dated 2026)",
  "format_in_all_cases": "physicochemical",
  "key": {"[1]": {"assay": "Slurry competition (interconversion) studies between Forms I and IV in heptane", "details": "mixture of Form I and Form IV, pre-saturated heptane, 7 d", "description": "Interconversion slurries were conducted in heptane at RT, −20° C., and 40° C. as in Table 12. In these slurries, the heptane was pre-saturated with N,N-DMT using Form IV solids at the stated temperature, and a portion of the liquid phase was filtered into a mixture of Form I and Form IV solids."}, "[2]": {"assay": "Hygroscopicity by dynamic vapor sorption (DVS)"}, "[3]": {"assay": "Stable form screen slurries, form by XRPD", "details": "for Relative thermodynamic stability of the polymorph (conclusion from slurries): slurries at RT, 40° C., about 2 weeks", "description": "Slurrying: Suspensions were prepared by adding enough solids to a given solvent at the stated conditions so that undissolved solids were present. The mixture was then agitated (typically by stirring or oscillation) in a sealed vial at a given temperature for an extended period of time.\nSlurry experiments were conducted to determine the relative stability of Forms I, III, and IV. The screening conditions are tabulated at Tables 9-11.\nIn these experiments, saturated solutions containing excess undissolved solids were stirred for extended durations. […] Slurries were conducted RT, 40° C., 5° C., and −20° C. for approximately 2 weeks."}, "[4]": {"assay": "Aqueous solubility by solvent addition, visual assessment", "details": "water, calculated from total solvent used"}, "[5]": {"assay": "Solid state heating experiments, form conversion"}, "[6]": {"assay": "Thermogravimetric analysis (TGA), decomposition", "details": "25 to 350° C. at 10° C./min under nitrogen", "description": "TGA or TGA/DSC analyses were performed using a Mettler-Toledo TGA/DSC3+ analyzer. Temperature and enthalpy adjustments were performed using indium, tin, zinc, and phenyl salicylate, and then verified with indium. The balance was verified with calcium oxalate. The sample was placed in an aluminum pan. The pan was hermetically sealed, the lid pierced, and the pan was then inserted into the TG furnace. A weighed aluminum pan configured as the sample pan was placed on the reference platform. The furnace was heated under nitrogen. Samples were analyzed from 25° C. to 350° C. at 10° C./min. Thermogravimetric analyses typically experience a period of equilibration at the start of each analysis, indicated by parentheses on the thermograms in the Figures section (V). The starting temperature for relevant weight loss calculations is selected at a point beyond this region (typically above 35° C.) for accuracy."}, "[7]": {"assay": "Cycling DSC of amorphous N,N-DMT prepared in situ (glass transition)", "description": "A cycling DSC experiment was performed to investigate a potential glass transition temperature by preparing amorphous solids in situ, starting with Form IV.\nAt the start of the experiment, Form IV solids were heated past the melt (to 80° C.) and held for 10 minutes. The melted material was quickly cooled to −80° C., then reheated to 200° C. A glass transition (Tg) is observed as a step in the green curve at −18° ° C. Amorphous materials tend to spontaneously crystallize at temperatures above the Tg."}},
  "note": "“Also recorded” adds a separate entry of the source.",
  "data": [
    {"smiles": "CN(C)CCc1c[nH]c2ccccc12", "note": "[Form I and Form IV, N,N-dimethyltryptamine]", "values": [
      {"measurement": "XRPD Result after competition slurry", "setting": "[1]; 40° C.", "result": "Form IV"},
      {"measurement": "XRPD Result after competition slurry", "setting": "[1]; RT", "result": "Form IV"},
      {"measurement": "XRPD Result after competition slurry", "setting": "[1]; −20° C.", "result": "Form IV"}
    ]},
    {"smiles": "CN(C)CCc1c[nH]c2ccccc12", "note": "[Form I, N,N-dimethyltryptamine]", "values": [
      {"measurement": "Hygroscopicity [DVS], water uptake", "setting": "[2]; at 60% RH", "result": 0.04, "unit": "wt % water at"},
      {"measurement": "Hygroscopicity [DVS], water uptake", "setting": "[2]; at 90% RH", "result": "60% RH and 0.18%"},
      {"measurement": "Form after DVS cycle and drying", "setting": "[2]; post-DVS solids dried at 60° C.", "result": "form change; also recorded: recrystallized upon cooling to ambient temperature to lower-melting Form III"},
      {"measurement": "XRPD Result after slurry", "setting": "[3]; start Form I, EtOAc/cyclohexane (5:95), attempted slurry, RT, 13 d", "result": "Form I"},
      {"measurement": "XRPD Result after slurry", "setting": "[3]; start Form I, IPA/water (10:90), 5° C., 13 d", "result": "Form I"},
      {"measurement": "XRPD Result after slurry", "setting": "[3]; start Form I, THF/water (5:95), attempted slurry, RT, 13 d", "result": "Form IV"},
      {"measurement": "XRPD Result after slurry", "setting": "[3]; start Form I, acetone/water (10:90), 5° C., 13 d", "result": "Form IV"},
      {"measurement": "XRPD Result after slurry", "setting": "[3]; start Form I, cyclohexane, RT, 13 d", "result": "Form I"},
      {"measurement": "XRPD Result after slurry", "setting": "[3]; start Form I, heptane, RT, 13 d", "result": "Form I"},
      {"measurement": "XRPD Result after slurry", "setting": "[3]; start Form I, heptane, −20° C., 17 d", "result": "Form I"},
      {"measurement": "solubility", "setting": "[4]; thermodynamic from solid", "result": "< 1000", "unit": "µg/mL"}
    ]},
    {"smiles": "CN(C)CCc1c[nH]c2ccccc12", "note": "[Form III, N,N-dimethyltryptamine]", "values": [
      {"measurement": "Form conversion on solid state heating", "setting": "[5]; held between 35° C. and 40° C.", "result": "concurrently melt and recrystallize to Form IV"},
      {"measurement": "Relative thermodynamic stability of the polymorph (conclusion from slurries)", "setting": "[3]; 5° C., −20° C.", "result": "metastable across all temperatures; also recorded: metastable at all conditions tested"},
      {"measurement": "XRPD Result after slurry", "setting": "[3]; start Form III, EtOAc/heptane (5:95), −20° C., 15 d", "result": "Form I"},
      {"measurement": "XRPD Result after slurry", "setting": "[3]; start Form III, IPAc/heptane (3:97), RT, 13 d", "result": "Form IV"},
      {"measurement": "XRPD Result after slurry", "setting": "[3]; start Form III, MeOH/water (20:80), 5° C., 15 d, sample oily before analysis", "result": "amorphous"},
      {"measurement": "XRPD Result after slurry", "setting": "[3]; start Form III, heptane, RT, 15 d", "result": "Form I"},
      {"measurement": "Decomposition (steep drop in TGA thermogram) begins above", "setting": "[6]", "result": "> 240", "unit": "°C"}
    ]},
    {"smiles": "CN(C)CCc1c[nH]c2ccccc12", "note": "[Form IV, N,N-dimethyltryptamine]", "values": [
      {"measurement": "Form change on solid state heating", "setting": "[5]; heating at 50° C. for 10 minutes", "result": "no changes"},
      {"measurement": "Relative thermodynamic stability of the polymorph (conclusion from slurries)", "setting": "[3]; 5° C., −20° C.", "result": "most thermodynamically stable polymorph; also recorded: remained unchanged upon slurrying in various solvent systems; also recorded: most thermodynamically stable form"},
      {"measurement": "XRPD Result after slurry", "setting": "[3]; start Form IV, EtOAc/heptane (5:95), −20° C., 13 d", "result": "Form IV"},
      {"measurement": "XRPD Result after slurry", "setting": "[3]; start Form IV, MeOH/water (20:80), 5° C., 13 d", "result": "Form IV"},
      {"measurement": "XRPD Result after slurry", "setting": "[3]; start Form IV, acetone/water (10:90), RT, 13 d", "result": "Form IV"},
      {"measurement": "XRPD Result after slurry", "setting": "[3]; start Form IV, heptane, RT, 13 d", "result": "Form IV"},
      {"measurement": "Decomposition (steep drop in TGA thermogram) begins above", "setting": "[6]", "result": "> 240", "unit": "°C"},
      {"measurement": "Aqueous solubility", "setting": "[4]", "result": "(<1) mg/mL"}
    ]},
    {"smiles": "CN(C)CCc1c[nH]c2ccccc12", "note": "[amorphous N,N-DMT, N,N-dimethyltryptamine]", "values": [
      {"measurement": "Glass transition (Tg)", "setting": "[7]; Form IV melted at 80° C., 10 min, cooled to −80° C., reheated to 200° C.", "result": "−18", "unit": "°C"},
      {"measurement": "Physical stability of amorphous material", "setting": "[7]; heating/melting experiments, −20° C. to 40° C., above Tg", "result": "readily crystallize; also recorded: poor physical stability"}
    ]}
  ]
}
